Here are results for 28 compounds from patent US20230102554A1 (GB002, INC., priority 2019, published 2023).

One may read the IC50 as the point on the concentration scale where inhibition reaches its midpoint.

In assay [1] the target is T1, Human PDGFRα, cytoplasmic domain (GST-PDGFRα) (Homo sapiens, UniProt P16234).
T1 construct: made in house
In words: Human PDGFRα biochemical inhibition assay (off-chip Mobility Shift Assay).

The target in assay [2] is T2, Human PDGFRβ, cytoplasmic domain (GST-PDGFRβ) (Homo sapiens, UniProt P09619).
T2 construct: made in house
T2 sequence (P09619 with tags, fused parts or gaps): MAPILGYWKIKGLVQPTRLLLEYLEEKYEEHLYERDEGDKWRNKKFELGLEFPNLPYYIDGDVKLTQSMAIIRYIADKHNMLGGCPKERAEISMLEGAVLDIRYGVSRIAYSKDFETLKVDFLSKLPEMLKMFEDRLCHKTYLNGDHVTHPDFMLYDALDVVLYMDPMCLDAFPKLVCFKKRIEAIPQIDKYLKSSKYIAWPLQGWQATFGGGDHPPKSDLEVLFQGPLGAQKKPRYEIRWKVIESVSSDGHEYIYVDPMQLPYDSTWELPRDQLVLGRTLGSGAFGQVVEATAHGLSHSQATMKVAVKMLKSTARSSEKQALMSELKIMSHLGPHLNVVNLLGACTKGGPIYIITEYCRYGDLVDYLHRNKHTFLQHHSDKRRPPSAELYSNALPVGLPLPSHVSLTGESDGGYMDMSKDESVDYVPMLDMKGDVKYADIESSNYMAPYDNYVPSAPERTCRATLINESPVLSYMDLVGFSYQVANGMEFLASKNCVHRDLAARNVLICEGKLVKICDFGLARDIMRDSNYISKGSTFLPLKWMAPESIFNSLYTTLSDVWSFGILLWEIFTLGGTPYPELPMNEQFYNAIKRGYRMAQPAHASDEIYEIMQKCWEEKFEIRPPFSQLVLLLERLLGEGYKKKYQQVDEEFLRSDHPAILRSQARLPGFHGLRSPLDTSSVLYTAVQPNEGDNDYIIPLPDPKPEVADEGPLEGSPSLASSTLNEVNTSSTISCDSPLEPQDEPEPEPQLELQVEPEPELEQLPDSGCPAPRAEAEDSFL
As to the kind of experiment: Human PDGFRβ biochemical inhibition assay (off-chip Mobility Shift Assay). The essentials: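 GST-tagged cytoplasmic domain (aa 557-1106) from baculovirus was incubated 1 h at room temperature with compound, CSKtide, ATP at Km and Mg²⁺ in HEPES buffer, pH 7.5. Phosphorylated and unphosphorylated peptide were separated by off-chip mobility shift, and the product ratio P/(P+S) gave percent inhibition.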

T1 sequence (P16234 550-1089 T674I): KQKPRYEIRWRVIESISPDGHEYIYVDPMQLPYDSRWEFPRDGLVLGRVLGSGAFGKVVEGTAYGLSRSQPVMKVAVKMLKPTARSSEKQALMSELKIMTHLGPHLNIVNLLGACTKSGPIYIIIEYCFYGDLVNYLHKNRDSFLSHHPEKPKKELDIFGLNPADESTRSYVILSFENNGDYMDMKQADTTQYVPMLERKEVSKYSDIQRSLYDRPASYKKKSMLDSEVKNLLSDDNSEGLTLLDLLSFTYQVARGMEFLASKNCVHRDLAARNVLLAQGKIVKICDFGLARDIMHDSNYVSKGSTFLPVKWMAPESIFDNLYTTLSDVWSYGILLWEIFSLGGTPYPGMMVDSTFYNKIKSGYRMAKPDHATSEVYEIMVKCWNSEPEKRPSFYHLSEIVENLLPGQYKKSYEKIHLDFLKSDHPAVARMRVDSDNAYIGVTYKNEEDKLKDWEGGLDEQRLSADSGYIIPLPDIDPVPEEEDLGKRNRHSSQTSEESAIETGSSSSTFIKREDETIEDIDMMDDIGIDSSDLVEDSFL

With `CCn1cc2ncc(N[C@@H](C)c3cccc(NC(=O)c4cnc(N5CCN(C)CC5)c(C(F)(F)F)c4)c3)nc2n1` [Compound 422, (S)-N-(3-(1-((2-ethyl-2H-pyrazolo[3,4-b]pyrazin-6-yl)amino)ethyl)phenyl)-6-(4-methylpiperazin-1-yl)-5-(trifluoromethyl)nicotinamide], the IC50 in assay [1] and in assay [2] was less than 300 nM each time.
Regarding `C[C@H](Nc1cnc2cnn(C)c2n1)c1cccc(NC(=O)c2cnc3c(c2)OCCO3)c1` [Compound 69, (S)-N-(3-(1-((1-methyl-1H-pyrazolo[3,4-b]pyrazin-6-yl)amino)ethyl)phenyl)-2,3-dihydro-[1,4]dioxino[2,3-b] pyridine-7-carboxamide], the half-inhibitory concentration (IC50) in assay [1] and in assay [2] was less than 300 nM in each case.
Turning to `Cc1cc(C(=O)Nc2cccc([C@H](C)Nc3cnc4cnn(C)c4n3)c2)cnc1C(F)F` [Compound 190, (S)-6-(difluoromethyl)-5-methyl-N-(3-(1-((1-methyl-1H-pyrazolo[3,4-b]pyrazin-6-yl)amino)ethyl)phenyl) nicotinamide], the IC50 in assay [1] and in assay [2] was less than 300 nM each time.
In the case of `Cc1n[nH]c2ncc(N[C@@H](C)c3cccc(NC(=O)c4cc(C(F)(F)F)n(C)n4)c3)nc12` [Compound 547, (S)-1-methyl-N-(3-(1-((3-methyl-1H-pyrazolo[3,4-b]pyrazin-5-yl)amino)ethyl)phenyl)-5-(trifluoromethyl)-1H-pyrazole-3-carboxamide], the 50% inhibitory concentration (IC50) in assay [1] and in assay [2] was less than 300 nM each time.
As to `CCn1cc2ncc(N[C@@H](C)c3cc(NC(=O)c4ccc(NC)nc4)ccc3F)nc2n1` [Compound 337, (S)-N-(3-(1-((2-ethyl-2H-pyrazolo[3,4-b]pyrazin-6-yl)amino)ethyl)-4-fluorophenyl)-6-(methylamino)nicotinamide], the half-inhibitory concentration (IC50) in assay [1] and in assay [2] was less than 300 nM each time.
As to `CCn1cc2ncc(N[C@@H](C)c3cccc(NC(=O)c4ccc(N5CCOCC5)nc4)c3)nc2n1` [Compound 372, (S)-N-(3-(1-((2-ethyl-2H-pyrazolo[3,4-b]pyrazin-6-yl)amino)ethyl)phenyl)-6-morpholinonicotinamide], the half-inhibitory concentration (IC50) was 300 to 1000 nM in assay [1] and no less than 1000 nM in assay [2].
`Cc1cncc(C(=O)Nc2cccc([C@H](C)Nc3cnc4cnn(C5CC5)c4n3)c2)c1` [Compound 177, (S)-N-(3-(1-((1-cyclopropyl-1H-pyrazolo[3,4-b]pyrazin-6-yl)amino)ethyl)phenyl)-5-methylnicotinamide]: the IC50 in assay [1] and in assay [2] was less than 300 nM each time.
`C[C@H](Nc1cnc2cn[nH]c2n1)c1cccc(NC(=O)c2cncc(C(C)(C)F)c2)c1` [Compound 94, (S)-N-(3-(1-((1H-pyrazolo[3,4-b]pyrazin-6-yl)amino)ethyl)phenyl)-5-(2-fluoropropan-2-yl) nicotinamide]: the IC50 in assay [1] and in assay [2] was less than 300 nM throughout.
As to `Cc1cncc(C(=O)Nc2cccc([C@H](C)Nc3cnc4cccc(F)c4c3)c2)c1` [Compound 29, (S)-N-(3-(1-((5-fluoroquinolin-3-yl)amino)ethyl)phenyl)-5-methylnicotinamide], the IC50 in assay [1] and in assay [2] was less than 300 nM in each case.
Turning to `CCn1cc2ncc(N[C@@H](C)c3cccc(NC(=O)c4cnc(Br)s4)c3)nc2n1` [Compound 324, (S)-2-bromo-N-(3-(1-((2-ethyl-2H-pyrazolo[3,4-b]pyrazin-6-yl)amino)ethyl)phenyl)thiazole-5-carboxamide], the IC50 in assay [1] was less than 300 nM; in assay [2], 300 to 1000 nM.
On the same counts, the results for `CCn1cc2ncc(N[C@@H](C)c3cccc(NC(=O)c4ccc(CN5CCN(C)CC5)nc4)c3)nc2n1` [Compound 387, (S)-N-(3-(1-((2-ethyl-2H-pyrazolo[3,4-b]pyrazin-6-yl)amino)ethyl)phenyl)-6-((4-methylpiperazin-1-yl)methyl) nicotinamide] are less than 300 nM and no less than 1000 nM.
As for `C[C@H](Nc1cnc2cnn(C)c2n1)c1cccc(NC(=O)c2ccc3ncn(C)c3c2)c1` [Compound 73, (S)-1-methyl-N-(3-(1-((1-methyl-1H-pyrazolo[3,4-b]pyrazin-6-yl)amino)ethyl)phenyl)-1H-benzo[d]imidazole-6-carboxamide], the IC50 in assay [1] and in assay [2] was less than 300 nM throughout.
`CCn1cc2ncc(N[C@@H](C)c3cc(NC(=O)Cc4ccc(C)c(C)n4)ccc3C)nc2n1` [Compound 717, (S)-2-(5,6-dimethylpyridin-2-yl)-N-(3-(1-((2-ethyl-2H-pyrazolo[3,4-b]pyrazin-6-yl)amino)ethyl)-4-methylphenyl) acetamide]: the IC50 in assay [1] and in assay [2] was less than 300 nM throughout.
For the compound `Cc1cncc(C(=O)Nc2cccc([C@H](C)Nc3cnc4cnn(C5CCOCC5)c4n3)c2)c1` [Compound 180, (S)-5-methyl-N-(3-(1-((1-(tetrahydro-2H-pyran-4-yl)-1H-pyrazolo[3,4-b]pyrazin-6-yl)amino)ethyl)phenyl) nicotinamide], the 50% inhibitory concentration (IC50) was 300 to 1000 nM in assay [1] and no less than 1000 nM in assay [2].
On the same counts, the results for `CCn1cc2ncc(N[C@@H](C)c3cccc(NC(=O)c4cnc(C5CCCC5)s4)c3)nc2n1` [Compound 398, (S)-2-cyclopentyl-N-(3-(1-((2-ethyl-2H-pyrazolo[3,4-b]pyrazin-6-yl)amino)ethyl)phenyl)thiazole-5-carboxamide] are less than 300 nM and less than 300 nM.
As for `CCn1cc2ncc(N[C@@H](C)c3cccc(NC(=O)c4cnc(OC(C)C)c(C)c4)c3)nc2n1` [Compound 327, (S)-N-(3-(1-((2-ethyl-2H-pyrazolo[3,4-b]pyrazin-6-yl)amino)ethyl)phenyl)-6-isopropoxy-5-methylnicotinamide], the half-maximal inhibitory concentration (IC50) in assay [1] and in assay [2] was less than 300 nM each time.
Consider `CCn1cc2ncc(N[C@@H](C)c3cccc(NC(=O)c4ccc(N(C)C)c(C)c4)c3)nc2n1` [Compound 384, (S)-4-(dimethylamino)-N-(3-(1-((2-ethyl-2H-pyrazolo[3,4-b]pyrazin-6-yl)amino)ethyl)phenyl)-3-methylbenzamide], for which the IC50 in assay [1] and in assay [2] was less than 300 nM in each case.
For the compound `CCn1cc2ncc(N[C@@H](C)c3cccc(NC(=O)c4ccc(CN5CCOCC5)cc4)c3)nc2n1` [Compound 374, (S)-N-(3-(1-((2-ethyl-2H-pyrazolo[3,4-b]pyrazin-6-yl)amino)ethyl)phenyl)-4-(morpholinomethyl)benzamide], the IC50 in assay [1] and in assay [2] was 300 to 1000 nM throughout.
Turning to `CCn1cc2ncc(N[C@@H](C)c3cc(NC(=O)c4cnn(CCF)c4)ccc3F)nc2n1` [Compound 311, (S)-N-(3-(1-((2-ethyl-2H-pyrazolo[3,4-b]pyrazin-6-yl)amino)ethyl)-4-fluorophenyl)-1-(2-fluoroethyl)-1H-pyrazole-4-carboxamide], the IC50 in assay [1] and in assay [2] was less than 300 nM in each case.
Regarding `CCn1cc2ncc(N[C@@H](C)c3cc(NC(=O)Cc4cncc(C(F)(F)F)c4)ccc3C)nc2n1` [Compound 692, (S)-N-(3-(1-((2-ethyl-2H-pyrazolo[3,4-b]pyrazin-6-yl)amino)ethyl)-4-methylphenyl)-2-(5-(trifluoromethyl)pyridin-3-yl)acetamide], the IC50 in assay [1] and in assay [2] was less than 300 nM throughout.
For the compound `CCn1cc2ncc(N[C@@H](C)c3cccc(NC(=O)c4ccc(CN5CCCC5)nc4)c3)nc2n1` [Compound 388, (S)-N-(3-(1-((2-ethyl-2H-pyrazolo[3,4-b]pyrazin-6-yl)amino)ethyl)phenyl)-6-(pyrrolidin-1-ylmethyl) nicotinamide], the IC50 in assay [1] and in assay [2] was no less than 1000 nM each time.
Regarding `Cc1cncc(C(=O)Nc2cccc([C@H](C)Nc3cnc4ccoc4n3)c2)c1` [Compound 605, (S)-N-(3-(1-(furo[2,3-b]pyrazin-3-ylamino)ethyl)phenyl)-5-methylnicotinamide], the IC50 in assay [1] and in assay [2] was less than 300 nM throughout.
Turning to `CCn1cc2ncc(N[C@@H](C)c3cccc(NC(=O)c4cnc(N5CCN(C)CC5)c(Cl)c4)c3)nc2n1` [Compound 421, (S)-5-chloro-N-(3-(1-((2-ethyl-2H-pyrazolo[3,4-b]pyrazin-6-yl)amino)ethyl)phenyl)-6-(4-methylpiperazin-1-yl) nicotinamide], the IC50 in assay [1] and in assay [2] was less than 300 nM each time.
As for `Cc1cncc(C(=O)Nc2cccc([C@H](C)Nc3cnc4[nH]nc(C)c4n3)c2)c1` [Compound 16, (S)-5-methyl-N-(3-(1-((3-methyl-1H-pyrazolo[3,4-b]pyrazin-5-yl)amino)ethyl)phenyl)nicotinamide], the IC50 in assay [1] and in assay [2] was less than 300 nM each time.
Regarding `CCc1nc2cc(N[C@@H](C)c3cccc(NC(=O)c4cncc(C)c4)c3)cnc2[nH]1` [Compound 24], the IC50 in assay [1] and in assay [2] was 300 to 1000 nM each time.
As to `C[C@H](Nc1cnc2cnn(C)c2n1)c1cccc(NC(=O)c2ccc(C3CCC3)nc2)c1` [Compound 123, (S)-6-cyclobutyl-N-(3-(1-((1-methyl-1H-pyrazolo[3,4-b]pyrazin-6-yl)amino)ethyl)phenyl)nicotinamide], the 50% inhibitory concentration (IC50) in assay [1] and in assay [2] was less than 300 nM each time.
For the compound `CCn1cc2ncc(N[C@@H](C)c3cc(NC(=O)Cc4ccc5c(n4)CCC5)ccc3C)nc2n1` [Compound 719, (S)-2-(6,7-dihydro-5H-cyclopenta[b]pyridin-2-yl)-N-(3-(1-((2-ethyl-2H-pyrazolo[3,4-b]pyrazin-6-yl)amino)ethyl)-4-methylphenyl)acetamide], the IC50 in assay [1] and in assay [2] was less than 300 nM each time.
Take `Cc1cncc(C(=O)Nc2cccc([C@H](C)Nc3cnc4[nH]c(-c5cnn(C)c5)nc4c3)c2)c1` [Compound 602, (S)-5-methyl-N-(3-(1-((2-(1-methyl-1H-pyrazol-4-yl)-3H-imidazo[4,5-b]pyridin-6-yl)amino)ethyl)phenyl) nicotinamide]: the 50% inhibitory concentration (IC50) in assay [1] and in assay [2] was less than 300 nM each time.
